According to PubChem BioAssay AID1918954 (Molecular Pharmacology Branch, DTP, NCI, 2023):

Tested on: MDA-MB-468 complex spheroids with HUVEC/MSC, viability
Assay: Anticancer human tumor MDA-MB-468 cell line growth inhibition;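 note: spheroids exposed to agents for seven days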;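 for viability, T/C: 100% = DMSO vehicle control viability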
Settings: for IC50: curve of first compound; for viability, T/C: stronger effect = lower value
Procedure, shortened: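 Multicellular complex spheroids of tumor cells with human endothelial cells (HUVEC) and mesenchymal stem cells; the LSD1 inhibitor iadademstat was combined with standard-of-care or investigational agents. Top concentration at or near clinical Cmax, half-log dilutions; final DMSO ≤0.25%.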

CC(C)CC(NC(=O)CNC(=O)c1cc(Cl)ccc1Cl)B1OC(=O)CC(CC(=O)O)(C(=O)O)O1 (stereo not given) + NC1CC1c1ccc(-c2cccc(O)c2)cc1
IC50 (second compound 0.1 µM): 0.00257 µM
IC50 (second compound 0.316 µM): 0.00249 µM
IC50 (second compound 1 µM): 0.00274 µM
IC50 (second compound 3.16 µM): 0.00232 µM
IC50 (second compound 10 µM): 0.00154 µM
viability, T/C (second compound 0.1 µM, first compound 0.000316 µM): 111%
viability, T/C (second compound 0.1 µM, first compound 0.001 µM): 106%
viability, T/C (second compound 0.1 µM, first compound 0.00316 µM): 37.6%
viability, T/C (second compound 0.1 µM, first compound 0.01 µM): 4.72%
viability, T/C (second compound 0.1 µM, first compound 0.0316 µM): 0.18%
viability, T/C (second compound 0.1 µM, first compound 0.1 µM): 0.16%
viability, T/C (second compound 0.316 µM, first compound 0.000316 µM): 118%
viability, T/C (second compound 0.316 µM, first compound 0.001 µM): 94.2%
viability, T/C (second compound 0.316 µM, first compound 0.00316 µM): 39%
viability, T/C (second compound 0.316 µM, first compound 0.01 µM): 5.32%
viability, T/C (second compound 0.316 µM, first compound 0.0316 µM): 0.16%
viability, T/C (second compound 0.316 µM, first compound 0.1 µM): 0.15%
viability, T/C (second compound 1 µM, first compound 0.000316 µM): 105%
viability, T/C (second compound 1 µM, first compound 0.001 µM): 109%
viability, T/C (second compound 1 µM, first compound 0.00316 µM): 41.8%
viability, T/C (second compound 1 µM, first compound 0.01 µM): 5.14%
viability, T/C (second compound 1 µM, first compound 0.0316 µM): 0.2%
viability, T/C (second compound 1 µM, first compound 0.1 µM): 0.14%
viability, T/C (second compound 3.16 µM, first compound 0.000316 µM): 106%
viability, T/C (second compound 3.16 µM, first compound 0.001 µM): 100%
viability, T/C (second compound 3.16 µM, first compound 0.00316 µM): 31.4%
viability, T/C (second compound 3.16 µM, first compound 0.01 µM): 5.19%
viability, T/C (second compound 3.16 µM, first compound 0.0316 µM): 0.17%
viability, T/C (second compound 3.16 µM, first compound 0.1 µM): 0.14%
viability, T/C (second compound 10 µM, first compound 0.000316 µM): 71.4%
viability, T/C (second compound 10 µM, first compound 0.001 µM): 62.5%
viability, T/C (second compound 10 µM, first compound 0.00316 µM): 28.9%
viability, T/C (second compound 10 µM, first compound 0.01 µM): 4%
viability, T/C (second compound 10 µM, first compound 0.0316 µM): 0.22%
viability, T/C (second compound 10 µM, first compound 0.1 µM): 0.24%

CCN(c1cc(-c2ccc(CN3CCOCC3)cc2)cc(C(=O)NCc2c(C)cc(C)[nH]c2=O)c1C)C1CCOCC1 + NC1CC1c1ccc(-c2cccc(O)c2)cc1
IC50 (second compound 0.1 µM): 0.219 µM
IC50 (second compound 0.316 µM): 0.214 µM
IC50 (second compound 1 µM): 0.171 µM
IC50 (second compound 3.16 µM): 0.171 µM
IC50 (second compound 10 µM): 0.0691 µM
viability, T/C (second compound 0.1 µM, first compound 0.00949 µM): 98.8%
viability, T/C (second compound 0.1 µM, first compound 0.03 µM): 89.1%
viability, T/C (second compound 0.1 µM, first compound 0.0949 µM): 64.3%
viability, T/C (second compound 0.1 µM, first compound 0.3 µM): 42.8%
viability, T/C (second compound 0.1 µM, first compound 0.949 µM): 34.9%
viability, T/C (second compound 0.1 µM, first compound 3 µM): 23%
viability, T/C (second compound 0.316 µM, first compound 0.00949 µM): 90%
viability, T/C (second compound 0.316 µM, first compound 0.03 µM): 98.7%
viability, T/C (second compound 0.316 µM, first compound 0.0949 µM): 62.1%
viability, T/C (second compound 0.316 µM, first compound 0.3 µM): 46.3%
viability, T/C (second compound 0.316 µM, first compound 0.949 µM): 33.7%
viability, T/C (second compound 0.316 µM, first compound 3 µM): 25.8%
viability, T/C (second compound 1 µM, first compound 0.00949 µM): 82.3%
viability, T/C (second compound 1 µM, first compound 0.03 µM): 79%
viability, T/C (second compound 1 µM, first compound 0.0949 µM): 57.2%
viability, T/C (second compound 1 µM, first compound 0.3 µM): 41.7%
viability, T/C (second compound 1 µM, first compound 0.949 µM): 28.6%
viability, T/C (second compound 1 µM, first compound 3 µM): 22.3%
viability, T/C (second compound 3.16 µM, first compound 0.00949 µM): 80%
viability, T/C (second compound 3.16 µM, first compound 0.03 µM): 86.1%
viability, T/C (second compound 3.16 µM, first compound 0.0949 µM): 61.8%
viability, T/C (second compound 3.16 µM, first compound 0.3 µM): 37.5%
viability, T/C (second compound 3.16 µM, first compound 0.949 µM): 29.3%
viability, T/C (second compound 3.16 µM, first compound 3 µM): 22.1%
viability, T/C (second compound 10 µM, first compound 0.00949 µM): 76.6%
viability, T/C (second compound 10 µM, first compound 0.03 µM): 60.4%
viability, T/C (second compound 10 µM, first compound 0.0949 µM): 46.5%
viability, T/C (second compound 10 µM, first compound 0.3 µM): 33.7%
viability, T/C (second compound 10 µM, first compound 0.949 µM): 29%
viability, T/C (second compound 10 µM, first compound 3 µM): 22.3%
